In patent publication US9359298B2, “Cajanine structure analogous compound, preparation method and use” (INSTITUTE OF MEDICINAL BIOTECHNOLOGY, CHINESE ACADEMY OF …, priority 2011, dated 2016):
In brackets after ≈: the same amount, converted by molar mass. Where two headings read alike, the source gives them in different places.

Key:
Type in all cases: cell-based
[1] = system: Coxsackie virus B6; experiment: Coxsackie virus activity assay (CPE in Vero cells); details: for IC50: Vero
[2] = system: PC12 cells; experiment: Neuroprotective activity assay, serum-deprived injury to PC12 cells (MTT); details: for viability at 10 µM: Rattus norvegicus, PC-12, 48 h, read-out: serum-deprived (surviving PC12 cells, MTT 570 nm)
Description: (§1) Discard the original culture media from confluent monolayers of PC12 cells (simulated neuronal cells), add DMEM complete medium with 5% FBS, 5% horse serum gently beat upon the cells with a pipette to completely disperse them, inoculate 100 μl cell suspension at a density of […] per well to 96 hole plates treated with poly-lysine (0.1 mg/ml) in advance, culture for 24h. Divide the experimenting cells into control group, model group and dosing groups. Add complete medium to the control group. Model groups includes rotenone group and serum-deprived group, add rotenone to the corresponding modules with a final concentration of 4 μM rotenone to take effect on the cells for 48 h, add serum-deprived groups with serum-free DMEM medium to take effect on the cells for 48 h. Dosing groups also includes two groups, one using rotenone module as model, another using serum-deprived module as model, and both add in 10 μM test compounds during modeling. 48h later, add 10 μl 5 mg/ml MTT, subsequently discard the supernatant 4h later and add in 150 μl DMSO, measure 570 nm absorbance to represent the numbers of surviving cells.

[3] = system: PC12 cells; experiment: Neuroprotective activity assay, rotenone injury to PC12 cells (MTT); details: for viability at 10 µM: Rattus norvegicus, PC-12, 48 h, read-out: rotenone (surviving PC12 cells, MTT 570 nm)
Description: as §1

[4] = system: HIV-1 III B virus; experiment: Anti-HIV activity assay (P24 antigen in MT-4 cells); details: for IC50: Human immunodeficiency virus 1, MT4, 96 h, read-out: HIV IC50; for anti-HIV viral activity: statement in words
[5] = system: Influenza A virus (hanfang359/95); experiment: Determination of anti-influenza virus activity (CPE in MDCK cells); details: for IC50: Influenza A virus, MDCK, 36 h; for anti-influenza virus activities compared with the lead compound cajanine: statement in words
[6] = system: HCV; experiment: Anti-hepatitis C virus (HCV) activity assay (HCV RNA in Huh7.5 cells); details: for EC50: Hepatitis C virus, Huh7.5, 72 h, read-out: HCV EC50; for anti-HCV viral activity: statement in words
Description: Inoculate Huh7.5 cells into 96-well plates to a density of 3×10^4 cells/cm^2, culture for 24h, infect the cells with 45 IU/cell HCV supernatant, meanwhile, add drug solutions or solvent control for treatment.

[7] = read-out: COX-B6 IC50, Vero cells, about 100TCID50, CPE, Reed-Muench
[8] = 10 μM test compound, 48 h, Control 100.0 ± 9.2, Model 69.3 ± 4.1
[9] = 10 μM test compound, 4 μM rotenone, 48 h, Control 100.0 ± 8.9, Model 73.2 ± 7.8
[10] = MT-4 cells, HIV-1 III B 100TCID50, 96 h, P24 antigen
[11] = Huh7.5 cells, 72 h, HCV RNA by RT-PCR, Reed-Muench

Row | Molecule | IC50 [1, 7] [µg/mL] | viability at 10 µM [2, 8] [%] | viability at 10 µM [3, 9] [%] | IC50 [4, 10] [µg/mL] | IC50 [5] [µg/mL] | EC50 [6, 11] [µg/mL] | also measured
1 | COC(=O)c1c(/C=C/c2ccccc2)cc(OC)c(CC=C(C)C)c1OC [Compound 14, methyl 2,4-dimethoxy-3-isopentenyl-6-[(E)-styryl]benzoate] | 1.6 (≈ 4.37 µM) | 69.7 ± 5.6 | 73.7 ± 8.5 | 1.32 (≈ 3.6 µM) | > 2.06 | 1.77 (≈ 4.83 µM) | 
2 | COc1cc(/C=C/c2cc(O)cc(O)n2)c(C(=O)O)c(O)c1CC=C(C)C [1a′, 2-hydroxy-3-isopentenyl-4-methoxy-6-[(E)-2-(4,6-dihydroxy-2-yl)ethenyl]benzoic acid] | 0.36 (≈ 0.969 µM) | 88.7 ± 4.9 | 87.2 ± 4.3 | 1.38 (≈ 3.72 µM) | 0.19 (≈ 0.512 µM) | 0.94 (≈ 2.53 µM) | anti-HIV viral activity [4]: stronger anti-HIV, HCV viral activities; anti-HCV viral activity [6]: stronger anti-HIV, HCV viral activities
3 | 2-isopentenyl-3-methoxy-5-[4′-methylcyclohexylene methyl]phenol [Compound 10n] |  |  |  |  |  |  | COX-B6 IC50 [1]: >2.05 µg/mL; serum-deprived (surviving PC12 cells, MTT 570 nm) [2, 8]: 79.6 ± 2.8; rotenone (surviving PC12 cells, MTT 570 nm) [3, 9]: 78.6 ± 3.2; HIV IC50 [4, 10]: 1.43 µg/mL; Influenza A virus (hanfang359/95) IC50 [5]: >0.69 µg/mL; HCV EC50 [6, 11]: 0.89 µg/mL
4 | COc1cc(/C=C/c2ccccc2)c(C(=O)O)c(OC(=O)CN(C)C)c1CC=C(C)C [Compound 24n, 2-(N,N-dimethylacetyloxy)-3-isopentenyl-4-methoxy-6-[(E)-styryl]benzoic acid] | 1.35 (≈ 3.19 µM) | 75.8 ± 3.2 | 79.8 ± 5.6 | 3.12 (≈ 7.37 µM) | 7.21 (≈ 17 µM) | 1.97 (≈ 4.65 µM) | 
5 | COc1cc(/C=C/c2ccccc2)c(C(=O)O)c(OC(C)=O)c1CC=C(C)C [Compound 24h] | 1.21 (≈ 3.18 µM) | 88.9 ± 5.4 | 87.8 ± 6.3 | 1.33 (≈ 3.5 µM) | 0.45 (≈ 1.18 µM) | 2.39 (≈ 6.28 µM) | 
6 | COc1cc(/C=C/c2cccc(C)c2)c(C(=O)O)c(O)c1CC=C(C)C [Compound 1f, 2-hydroxy-3-isopentenyl-4-methoxy-6-[(E)-3-methylstyryl]benzoic acid] | 4.65 (≈ 13.2 µM) | 31.7 ± 10.3 | 58 ± 4.5 | 1.45 (≈ 4.11 µM) | 0.48 (≈ 1.36 µM) | 0.53 (≈ 1.5 µM) | anti-HIV viral activity [4]: stronger anti-HIV, HCV viral activities; anti-influenza virus activities compared with the lead compound cajanine [5]: significantly stronger than the lead compound cajanine; anti-HCV viral activity [6]: stronger anti-HIV, HCV viral activities
7 | COc1cc(/C=C/C=C/c2ccccc2)c(C(=O)O)c(O)c1CC=C(C)C [Compound 1m, 2-hydroxy-3-isopentenyl-4-methoxy-6-[(1′E,3′E)-phenylbutadien-1′,3′-yl]benzoic acid] | > 2.06 | 21 ± 2.2 | 74.4 ± 4.4 | 1.07 (≈ 2.94 µM) | 6.17 (≈ 16.9 µM) |  | EC50 [6]: 6.17 µg/mL (≈ 16.9 µM)
8 | COc1cc(/C=C/c2ccncc2)c(C(=O)O)c(O)c1CC=C(C)C [Compound 1r, 2-hydroxy-3-isopentenyl-4-methoxy-6-[(E)-2-(pyridin-4-yl)ethenyl]benzoic acid] | 6.35 (≈ 18.7 µM) | 84.3 ± 6.3 | 86.3 ± 5.4 | 6.53 (≈ 19.2 µM) | 6.36 (≈ 18.7 µM) | 6.79 (≈ 20 µM) | protective effect on serum-deprived injury to PC12 cells ([2]; statement in words): the strongest activities; protective effect on rotenone injury to PC12 cells ([3]; statement in words): the strongest activities
9 | COc1cc(/C=C/c2ccccc2C)c(C(=O)O)c(O)c1CC=C(C)C [Compound 1e, 2-hydroxy-3-isopentenyl-4-methoxy-6-[(E)-2-methylstyryl]benzoic acid] | 3.26 (≈ 9.25 µM) | 30.6 ± 12 | 55.6 ± 9.9 | 2.7 (≈ 7.66 µM) | > 2.47 | 0.47 (≈ 1.33 µM) | anti-HIV viral activity [4]: stronger anti-HIV, HCV viral activities; anti-HCV viral activity [6]: stronger anti-HIV, HCV viral activities
10 | COc1cc(/C=C/c2cccc(C)c2)cc(O)c1CC=C(C)C [Compound 10f, 2-isopentenyl-3-methoxy-5-[(E)-3′-methylstyryl]phenol] | 1.26 (≈ 4.09 µM) | 74.5 ± 6.5 | 76.5 ± 8 | 0.46 (≈ 1.49 µM) | 0.89 (≈ 2.89 µM) | 0.87 (≈ 2.82 µM) | anti-influenza virus activities compared with the lead compound cajanine [5]: significantly stronger than the lead compound cajanine
11 | COc1cc(/C=C/c2ccccc2)c(C(=O)O)c(OC(=O)NN)c1CC=C(C)C [Compound 29b, 2-Hydrazinoformyloxy-3-isopentenyl-4-methoxy-6-[(E)-styryl]benzoic acid] |  |  |  |  | 1.21 (≈ 3.05 µM) |  | IC50 ([1]; read-out: COX-B6 IC50): 0.67 µg/mL (≈ 1.69 µM); viability at 10 µM [2]: 74.5 ± 4.6%; viability at 10 µM [3]: 78.9 ± 5.6%; IC50 [4]: 1.88 µg/mL (≈ 4.74 µM); EC50 [6]: 1.36 µg/mL (≈ 3.43 µM)
12 | COC(=O)c1c(/C=C/c2ccc(OC)cc2)cc(OC)c(CC=C(C)C)c1O [Compound 8c, methyl 2-hydroxy-3-isopentenyl-4-methoxy-6-[(E)-4-methoxystyryl]-benzoate] | 4.79 (≈ 12.5 µM) | 67.3 ± 10 | 71.9 ± 6.1 | 1.99 (≈ 5.2 µM) | > 2.06 | 3.06 (≈ 8 µM) | 
13 | COc1cc(/C=C/c2ccccc2)c(C(=O)n2ccnc2)c(O)c1CC=C(C)C [Compound 22, (E)-(2-hydroxy-3-isopentenyl-4-methoxy-6-styrylphenyl)(1H-imidazol-1-yl)ketone] | 2.37 (≈ 6.1 µM) | 87.8 ± 2.9 | 85.6 ± 1.6 | 0.35 (≈ 0.901 µM) | 1.25 (≈ 3.22 µM) | 0.68 (≈ 1.75 µM) | 
14 | C=CCc1c(O)cc(/C=C/c2ccccc2)cc1OC [10h′, 2-allyl-3-methoxy-5-[(E)-styryl]phenol] | 0.54 (≈ 2.03 µM) | 87.6 ± 4.3 | 86.7 ± 4.5 |  | 0.09 (≈ 0.338 µM) |  | 
15 | C=CCc1c(OC)cc(/C=C/c2ccccc2)c(C(=O)OC)c1O [8a′, methyl 2-hydroxy-3-allyl-4-methoxy-6-[(E)-styryl]benzoate] | 1.64 (≈ 5.06 µM) | 87.9 ± 2.5 | 88 ± 6.9 |  | 0.15 (≈ 0.462 µM) |  | 
16 | COC(=O)c1c(/C=C/c2cc(OC)c(OC)c(OC)c2)cc(OC)c(CC=C(C)C)c1O [Compound 8u, methyl 2-hydroxy-3-isopentenyl-4-methoxy-6-[(E)-(3,4,5-trimethoxy-styryl)]benzoate] | 1.65 (≈ 3.73 µM) |  |  | 1.49 (≈ 3.37 µM) | 0.11 (≈ 0.249 µM) | 0.67 (≈ 1.51 µM) | anti-HIV viral activity [4]: stronger anti-HIV, HCV viral activities; anti-HCV viral activity [6]: stronger anti-HIV, HCV viral activities
